Results published in patent US10206930B2, “Methods for treating T-cell acute lymphoblastic leukemia” (New York University, priority 2015, dated 2019).

Experiments:
[1] = system: H3K27me3 levels at repressed genes; test: H3K27me3 ChIP at repressed genes upon GSKJ4 treatment; assay type: cell-based, human; conditions: 24 to 72 hours post-GSKJ4 treatment
Experimental: ChIP experiments were performed as described previously (Ntziachristos et al., “Genetic Inactivation of the Polycomb Repressive Complex 2 in T Cell Acute Lymphoblastic Leukemia,” Nature Med. 18:298-303 (2012), which is hereby incorporated by reference in its entirety). In brief, for the analysis of histone marks, the cells were fixed with 1% formaldehyde for 10 minutes at 25° C. and lysed them by the addition of nucleus incubation buffer (15 mM Tris, pH 7.5, 60 mM KCl, 150 mM NaCl, 15 mM MgCl2, 1 mM CaCl2, 250 mM sucrose and 0.3% NP-40) and incubation at 4° C. for 10 minutes. […]
First, enriched ChIP-seq windows were identified separately for each of the two samples under comparison using a window-based approach and the binomial probability distribution to compare signal reads with control reads in each window. Subsequently, for each genomic window enriched in at least one of the two samples, the total number of reads was determined, and the window read counts were normalized using quantile normalization across biological replicates and samples before comparison. […] This comparison was performed independently at different H3K27me3 read density levels to control for artificially high fold changes due to low read counts in the denominator. […]

[2] = system: human T-ALL cell lines and primary human T-ALL cells; test: Cell growth, annexin V apoptosis and BrdU cell cycle analysis of T-ALL cells; assay type: cell-based; design: dose or concentration left out as unconfirmed
From the text: Mice, Cell Culture and Primary Cell Samples. The Jmjd3 (Satoh et al., “The Jmjd3-Irf4 Axis Regulates M2 Macrophage Polarization and Host Responses Against Helminth Infection,” Nature Immunol. 11:936-944 (2010), which is hereby incorporated in its entirety) and Utx (Welstead et al., “X-linked H3K27me3 Demethylase Utx is Required for Embryonic Development in a Sex-Specific Manner,” Proc. Natl. Acad. Sci. USA 109:13004-13009 (2012), which is hereby incorporated by reference in its entirety) knockout mouse models, as well as the corresponding genotyping strategy, have been described previously. All animals used in this study were treated according to IACU protocols. The human T-ALL cell lines CUTLL1 (Palomero et al., “CUTLL1, a Novel Human T-Cell Lymphoma Cell Line With t(7; 9) Rearrangement, Aberrant NOTCH1 Activation and High Sensitivity to c-Secretase Inhibitors,” Leukemia 20:1279-1287 (2006), which is hereby incorporated by reference in its entirety), P12-Ichikawa, Loucy, DND41, CEM and Jurkat and the myeloid leukaemia cell lines (THP-1 and HL-60), as well as the mouse T-ALL line (720) (Sharma et al., “Notch1 Contributes to Mouse T-cell Leukemia by Directly Inducing the Expression of c-myc,” Mol. Cell. Biol. 26:8022-8031 (2006), which is hereby incorporated by reference in its entirety), were cultured in RPMI 1640 medium supplemented with 20% FBS and penicillin and streptomycin. […] Primary human samples were collected by collaborating institutions with informed consent and were analyzed under the supervision of the Columbia University Medical Center and St. Jude Children's Research Hospital Institutional Review Boards. […]
T-ALL cells were infected twice with shRNA-expressing retroviruses and selected using puromycin. […] For the cell cycle analysis, 5-bromodeoxyuridine (BrdU; 10 mM) was added for a 1 hour pulse, and incorporation into DNA was determined by using the BrdU Flow Kit (BD Biosciences). Apoptosis was studied by quantification of annexin V staining using the BD Biosciences kit and flow cytometry according to standard protocols provided by the manufacturer. […]

T-ALL cells = test: IC50 of GSKJ4 on T-ALL cell proliferation, normalized to control inhibitor GSKJ5; assay type: cell-based; conditions: Homo sapiens, 120 h, 5 days treatment, FIG. 11A CUTLL1, read-out: IC50 determined for T-ALL cells
[3] = system: human T-ALL cells (CUTLL1); test: Genome-wide expression analysis (RNA-seq) of treated T-ALL cells; assay type: cell-based
Experimental: Whole RNA was extracted from 1-5×10^6 T-ALL cells or primary cells using the RNeasy kit (QIAGEN) according to the manufacturer's protocol. Poly(A)^+ RNA was enriched using magnetic oligo(dT)-containing beads (Invitrogen). cDNA was prepared and strand-specific libraries were constructed using the dUTP method as described previously (Zhong et al., “High-Throughput Illumina Strand-Specific RNA Sequencing Library Preparation,” Cold Spring Harb. Protoc. 2011:940-949 (2011), which is hereby incorporated by reference in its entirety). Libraries were sequenced on the IIlumina HiSeq 2000 using the 50-base-pair single-read method.
Differential gene expression analysis was performed for each matched knockdown versus control pair, separately in each biological or technical replicate in each of two cell lines (CUTLL1 and CEM). Three types of comparisons were tested: (1) JMJD3 knockdown versus Renilla; (2) JMJD3 knockdown versus UTX knockdown; and (3) UTX knockdown versus Renilla. DEGseq44 was used to analyze (a) matched knockdown—Renilla replicates in separate DEGseq runs and (b) all replicates on a combined DEGexp run. For the mouse (Utx knockout) samples, spleen and bone marrow from a wild-type male (referred to as animal #9), as well as spleen from a wild-type female (animal #10), were compared with spleen and bone marrow from a knockout male (#23) and spleen from another knockout male (#27) (see also the GEO accession G5E56696). For illustration, scatter plots (FIG. 4D and FIGS. 5G-I) were created using values obtained from DEGseq analysis of merged biological and/or technical replicates. Gene RNA-seq FPKM values were computed using GenomicTools (Tsirigos et al., “GenomicTools: A Computational Platform for Developing High-Throughput Analytics in Genomics,” Bioinformatics 28:282-283 (2012), which is hereby incorporated by reference in its entirety). The P-value cutoff for differential expression was set at 1×10^−5, with the minimum absolute log2 fold change set at 0.5.

[4] = system: myeloid leukaemia cells, stromal cells and haematopoietic progenitor cells; test: Growth of non-T-ALL control cells under GSKJ4; assay type: cell-based; conditions: FIGS. 12L-12M
human T-ALL cells = test: shRNA knockdown: loss of representation studies and apoptosis assays; assay type: cell-based; conditions: shRNA treatment
Experimental: T-ALL cells were infected twice with shRNA-expressing retroviruses and selected using puromycin. Expression studies took place at different time points during the selection period, and the results are presented from day 4 during selection. […] For the cell cycle analysis, 5-bromodeoxyuridine (BrdU; 10 mM) was added for a 1 hour pulse, and incorporation into DNA was determined by using the BrdU Flow Kit (BD Biosciences). Apoptosis was studied by quantification of annexin V staining using the BD Biosciences kit and flow cytometry according to standard protocols provided by the manufacturer. Doxycycline was used at […] final concentration.
Protein-G-coated magnetic beads were purchased from Invitrogen. […] Reporter fluorescence was used (as determined by flow cytometry) for the quantification of shRNA.

[5] = system: T-ALL cell lines (CUTLL1, CEM and P12); test: Subcutaneous or intravenous xenograft of shRNA-treated T-ALL cell lines; assay type: in vivo, mouse; conditions: immunocompromised NRG mice; compared with shRenilla-treated cell lines
Experimental: Studies were conducted as previously published (Ntziachristos et al., “Genetic Inactivation of the Polycomb Repressive Complex 2 in T Cell Acute Lymphoblastic Leukemia,” Nature Med. 18:298-303 (2012), which is hereby incorporated by reference in its entirety). In both cases, CUTLL1, P12 or CEM T-ALL cells expressing luciferase (FUW-LUC) and the corresponding shRNA (shJMJD3, shUTX or shRenilla) were used. For the intravenous studies, 1×10^6 cells were injected retroorbitally into sublethally irradiated female NRG (NOD Rag1^−/−Il2rg^−/−) mice. For subcutaneous studies, 1×10^6 cells were mixed with an equal volume of BD Matrigel basement membrane and injected into the flanks of female NOD-SCID mice. In both cases, cell growth was monitored every 2 days using IVIS (Caliper, PerkinElmer).

[6] = GSKJ4 vs control inhibitor GSKJ5

**Q.** What does the source list for `CCOC(=O)CCNc1cc(N2CCc3ccccc3CC2)nc(-c2ccccn2)n1` [GSKJ4, ethyl 3-((6-(4,5-dihydro-1H-benzo[d]azepin-3(2H)-yl)-2-(pyridin-2-yl)pyrimidin-4-yl)amino)propanoate]?
**A.** H3K27me3 levels at repressed genes [1]: increase in the H3K27me3 levels; apoptosis (annexin V) [2, 6]: increased apoptosis; cell cycle effect [2, 6]: cell cycle arrest; growth of human T-ALL cell lines and primary human T-ALL cells ([2]; GSKJ4 vs control inhibitor GSKJ5, 24-72 hours): significantly affected the growth; IC50 (T-ALL cells): 2000 nM; number of downregulated genes ([3]; CUTLL1, 72 hours of treatment with GSKJ4): 486 genes; growth of myeloid leukaemia cells, stromal cells and haematopoietic progenitor cells [4]: unaffected

B1: shUTX: shRNA against UTX, SEQ ID NO: 5 (nucleic acid)
chain: ACACAAGGTAGTCTACAGAATATAGTGAAGCCACAGATGTATATTCTGTAGACTACCTTGTGG
**Q.** Which “viability of leukaemic cells” value (human T-ALL cells) does the source give for B1 here?
**A.** not

**Q.** What about the “number of significantly downregulated protein-coding genes” value ([3]; shRNA knockdown) of the same molecule?
**A.** 46 genes

**Q.** And the “number of significantly upregulated protein-coding genes” value ([3]; shRNA knockdown)?
**A.** 189 genes

B2: shJMJD3B: shRNA against JMJD3, SEQ ID NO: 4 (nucleic acid)
chain: ACACCAGCAGTAGCAACAGCAATAGTGAAGCCACAGATGTATTGCTGTTGCTACTGCTGGTGG
**Q.** B2 was tested. Which “in vivo growth of transplanted T-ALL cells” value [5] did it give?
**A.** significant growth disadvantage

B3: shJMJD3A: shRNA against JMJD3, SEQ ID NO: 3 (nucleic acid)
chain: CAGGGAAGTTTCGAGAAGTCCTATAGTGAAGCCACAGATGTATAGGACTCTCGAACTTCCCTT
**Q.** How did the “in vivo growth of transplanted T-ALL cells” value [5] turn out when B3 was run?
**A.** significant growth disadvantage
